The target in one data set is T1, human STING (Homo sapiens, UniProt Q86WV6).
T1 construct: purchased Cisbio #64BDSTGPEG
Briefly: Direct binding potency, HUMAN STING WT BINDING KIT (Cisbio). Conditions: in vitro. The source says: Additionally, or analysis of direct binding potency of STING agonist compounds described herein to human STING, HUMAN STING WT BINDING KIT (Cisbio, #64BDSTGPEG) was used according to the manufacturer's instruction.

In another data set the target is T2, hSTING-R232 (Homo sapiens, UniProt Q86WV6, H232R).
T2 construct: host or cells: THP1 Dual KI-hSTING-R232 (STING HAQ gene removed, R232 variant gene introduced)
T2 sequence (Q86WV6 whole entry H232R): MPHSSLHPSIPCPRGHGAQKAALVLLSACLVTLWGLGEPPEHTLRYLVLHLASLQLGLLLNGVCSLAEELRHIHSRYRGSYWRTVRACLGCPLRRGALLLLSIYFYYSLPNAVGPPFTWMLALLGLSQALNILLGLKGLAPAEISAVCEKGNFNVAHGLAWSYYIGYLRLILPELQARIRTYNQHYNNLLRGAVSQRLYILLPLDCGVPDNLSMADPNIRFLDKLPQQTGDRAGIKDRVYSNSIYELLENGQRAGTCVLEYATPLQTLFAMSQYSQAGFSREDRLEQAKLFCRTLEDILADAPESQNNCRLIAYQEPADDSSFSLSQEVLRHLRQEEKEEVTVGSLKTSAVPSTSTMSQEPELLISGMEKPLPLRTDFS
Briefly: STING agonist activity, THP1 Dual KI-hSTING-R232 IRF luciferase reporter cells. Conditions: 24 hours. In kind it is cell-based. On the procedure: (§1) In order to evaluate the activity of the STING agonist, reporter cells from Invivogen were used. The cell lines used in the experiment were THP1 Dual™ (InvivoGen #thpd-nfis) expressing the endogenous STING variant HAQ and THP1 Dual™ KI-hSTING-R232 (InvivoGen #thpd-r232/h232) into which the STING R232 or H232 variant gene was injected after removing the STING HAQ gene. The cell lines have a luciferase reporter gene inserted below the IFN regulatory factor (IRF) promoter, and thus the activity of the IFN regulatory factor (IRF) mechanism can be evaluated through luciferase expression.
(§2) The reporter cells were plated at 9.0×10^4 cells/100 μL per well in a 96-well plate using RPMI 1640 medium (Gibco, #22400097) supplemented with 10% heat-inactivated FBS and 1×Antibiotic-Antimycotic (Gibco, #15240062), 10 μg/mL blasticidin (Gibco, #A1113902), and 100 μg/mL Zeocin (Gibco, #R25005). The plated cells were cultured at 37° C., 5% CO2 for 24 hours, and then treated with 100 μL of the serially diluted compound in each well, and then cultured at 37° C., 5% CO2 for 24 hours. After culturing, 20 μL of the cell culture medium was transferred to a 96 well white plate, and QUANTI-Luc™ (InvivoGen #rep-qlcl) was added at 50 µL/well. Using a microplate reader (Perkin Elmer), the value of the luminescence signal increased in the experimental group treated with the drug compared to the control group not treated with the drug was calculated. EC50 values were derived according to the concentration of the compound using GraphPad Prism.
(Reporter assays use an easily measured gene product as a stand-in for the process of interest.)

The nature of data set [1]: Pharmacokinetics in Balb/C mouse after single IV dose. In kind it is in vivo. Conditions: 1.5 mg/kg; for AUC(0-inf) / AUC(0-t) / C0 / Cmax / AUC∞, norm / Cmax, norm: n = 3, plasma; for AUC∞, norm / Cmax, norm: dose-normalized; for clearance / half-life / Vd: plasma; for clearance / half-life: n = 3; for Vd: n = 3, read-out: VSS. How it is done: For in vivo evaluation of STING agonist compounds described herein in naïve Balb/C mouse, single doses of STING agonist compounds were given at 1.5 mg/kg intravenously into female BALB/c mice (Orientbio, South Korea) at 6-8 weeks of age. Pharmacokinetics were studied following injection of the STING agonist compounds into Balb/C mice. Plasma samples were taken at various time points and stored frozen for analysis. The plasma concentrations of the STING agonist compounds at the indicated time points were measured using a LC-MS/MS analysis method.
Briefly, 250 μL of acetonitrile (ACN) solution was added in both 50 µL of sample and 50 µL of plasma containing 10 nM Dextromethorphan (internal standard), and the solutions were mixed vigorously using a vortex mixer for 5 minutes. The samples were then spun down at 14,000 rpm, 4° C. for 5 minutes. 100 μL of supernatants were combined with 100 μL of mobile phase A (0.1% formic acid in water with 5% ACN) and mixed thoroughly. The samples were measured for the STING agonist compounds using a LC-MS/MS (Nexera LC40 (SHIMADZU) and QTRAP4500 (SCIEX)).

The target of the next data set is T3, hSTING-H232 (Homo sapiens, UniProt Q86WV6).
T3 construct: host or cells: THP1 Dual KI-hSTING (STING HAQ gene removed, H232 variant gene introduced)
T3 sequence (Q86WV6 whole entry): as the sequence (Q86WV6 whole entry H232R) above, with R232H counted along it
Briefly: STING agonist activity, THP1 Dual reporter cells with STING H232 variant. In kind it is cell-based. Conditions: IRF luciferase, 24 hours. How it is done: as §1, §2

A further data set concerns the target T4, hSTING-HAQ (Homo sapiens, UniProt Q86WV6, G230A/H232R/R293Q/R71H).
T4 construct: expressing the endogenous STING variant HAQ; host or cells: THP1 Dual
Briefly: STING agonist activity, THP1 Dual reporter cells expressing endogenous STING variant HAQ. In kind it is cell-based. Conditions: IRF luciferase, 24 hours. On the procedure:
as §1, §2

A short description of data set [2]: In vitro cell cytotoxicity in CD34+ HSC (CellTiter-Glo). In kind it is cell-based. Conditions: cd34+ hscs. On the procedure: The CD34^+ hematopoietic stem cells (HSCs) were purchased from […]™ (#70002.3). The cells (2×10^4 cells per well) were cultured in StemSpan™ SFEM II medium supplemented with StemSpan™ CD34+ Expansion Supplement (#02691) in a 6-well plate at 37° C. for 7 days. On day 3 or 4, an equal volume of fresh complete medium was added into the cell culture. On day 7, the cells (4×10^4 cells per well) were seeded in a 96-well white plate and rested for 24 hours in the same condition.
After 72 hours, the cell viability was measured using CellTiter-Glo Luminescent Cell Viability Assay (Promega, #G7573) according to the manufacture's instruction. The signal was detected using an EnVision Xcite multilabel reader and data were analyzed using GraphPad Prism 8 software.

The nature of data set [3]: In vitro cell cytotoxicity in PBMCs (CellTiter-Glo). In kind it is cell-based. How it is done:
PBMCs were also purchased from […]™ (#700025.2). The cells (8.0×10^4 cells per well) were seeded in a flat-bottomed 96-well plate in RPMI 1640 medium (Gibco, #22400097) with 10% heat-inactivated FBS and 1×Antibiotic-Antimycotic (Gibco, #15240062) and rested for 24 hours at 37° C. […] After 72 hours, the cell viability was measured using CellTiter-Glo Luminescent Cell Viability Assay (Promega, #G7573) according to the manufacture's instruction. The signal was detected using an EnVision Xcite multilabel reader and data were analyzed using GraphPad Prism 8 software.
To verify the effect of the STING agonist compounds in normal cell cytotoxicity, the PBMCs were treated with the STING agonist compounds for 3 days and measured the percentage of cell death.

Structures are written as SMILES.

T4 sequence (Q86WV6 whole entry R71H/G230A/H232R/R293Q): as the sequence (Q86WV6 whole entry H232R) above, with R71H, G230A, R293Q counted along it
T1 sequence (Q86WV6 whole entry): as the sequence (Q86WV6 whole entry H232R) above, with R232H counted along it

In general, EC50 refers to the concentration needed to bring the measured effect to its halfway point. A high value points to a less potent agent. By AUC(0-inf) is commonly meant the area under the concentration-time curve extrapolated to infinity. Higher therefore signals more exposure. Broadly, the AUC(0-t) is exposure summed from dosing to a finite time, without extrapolation to infinity. Lower therefore signals low exposure. What is called Cmax is the highest concentration seen after dosing. Usually clearance stands for the rate of elimination divided by the concentration. A lower clearance goes with a low capacity for elimination. In general, half-life refers to how long it takes for the measured level to halve. For orientation: CC50 means the concentration at which the toxic effect on the cells reaches its halfway point. Lower therefore signals harm at low concentration. `CCn1nc(C)cc1C(=O)Nc1nc2cc(C(N)=O)cc(OC/C=C/Cn3cc(N)cn3)c2n1C/C=C/Cn1c(NC(=O)c2cc(C)nn2CC)nc2cc(C(N)=O)cc(OCCCC(=O)O)c21` [Compound 65] had an EC50 at human STING of 0.43 nM. This compound came in with a concentration for a half-maximal effect (EC50) at hSTING-R232 of 1.7 nM. Besides, in data set [1], the AUC(0-inf) was found to be 0.44 ± 0.44 µg·h/mL, the AUC(0-t) worked out at 0.43 ± 0.05 µg·h/mL, the C0 came out at 1.3 ± 0.43 µg/mL and the Cmax came out at 0.96 ± 0.17 µg/mL. Besides, in data set [1], the “AUC∞, norm” value worked out at 0.29 ± 0.03 kg·h/L; the “Cmax, norm” value amounted to 0.64 ± 0.11 kg/L; the clearance was 3.45 L/h/kg; the half-life is 28.2 ± 4.8 min. For the same compound, the Vd in data set [1] was 1.58 ± 0.13 L/kg. Moreover, a half-maximal response on hSTING-H232 (EC50) required 7 nM. The EC50 at hSTING-HAQ turned out to be 25.5 nM. The same compound had a CC50 at 72 h in data set [2] of 3.9 nM. Also, in data set [3], the CC50 at 72 h turned out to be 18.5 nM.

Take `CCn1nc(C)cc1C(=O)Nc1nc2cc(C(N)=O)cc(OC)c2n1C/C=C/Cn1c(NC(=O)c2cc(C)nn2CC)nc2cc(C(N)=O)cc(OC/C=C/CN3CCNCC3=O)c21` [Compound 28]: the EC50 worked out at 3.37 nM at hSTING-R232, 9.5 nM on hSTING-H232 and 15.5 nM at hSTING-HAQ. Also, the half-maximal cytotoxic concentration (CC50) at 72 h amounted to 24.9 nM in data set [2] and 12.7 nM in data set [3].

At human STING, `CCn1nc(C)cc1C(=O)Nc1nc2cc(C(N)=O)cc(OC)c2n1C/C=C/Cn1c(NC(=O)c2cc(C)nn2CC)nc2cc(C(N)=O)cc(OC/C=C/Cn3cc(N)cn3)c21` [Compound 55] registered an EC50 of 0.22 nM. The compound further came in with an EC50 at hSTING-R232 of 0.5 nM. Moreover, in data set [1], the AUC(0-inf) is 5.16 ± 0.12 µg·h/mL, the AUC(0-t) came out at 5.11 ± 0.12 µg·h/mL, the C0 was 21.1 ± 2.21 µg/mL and the concentration peaked (Cmax) at 14.1 ± 0.59 µg/mL. Moreover, in data set [1], the “AUC∞, norm” value was determined as 3.44 ± 0.08 kg·h/L; the “Cmax, norm” value is listed as 9.42 ± 0.39 kg/L; the clearance was 0.29 L/h/kg; the half-life was 72 ± 4.8 min. The Vd in data set [1] was 0.15 L/kg. In addition, the EC50 on hSTING-H232 was 5.5 nM. The same compound displayed an EC50 on hSTING-HAQ of 6.3 nM. In data set [2], this compound yielded a CC50 at 72 h of 7.9 nM. The midpoint of cytotoxicity in data set [3], the CC50 at 72 h, lay at 4 nM.

As for `CCn1nc(C)cc1C(=O)Nc1nc2cc(C(N)=O)cc(OC)c2n1C/C=C/Cn1c(NC(=O)c2cc(C)nn2CC)nc2cc(C(N)=O)cc(OCCCN3CCOCC3)c21` [Comparative #1, reference compound], in data set [1], the “AUC∞, norm” value stood at 0.66 ± 0.07 kg·h/L and the “Cmax, norm” value is 1.94 ± 0.30 kg/L. This compound gave a 50% cytotoxic concentration (CC50) at 72 h in data set [3] of 3.3 nM.

Source of the values: patent publication US20260317357A1, “HETEROCYCLIC COMPOUNDS AS STING AGONISTS” (LigaChem Biosciences Inc., priority 2022, published 2026).
